Source: patent US7696383B2 (Solvay Pharmaceuticals B.V., priority 2007, dated 2010)
Marks after values point to notes of the source that are not given here.

Legend:
[1] = Plasma and brain concentrations and plasma pharmacokinetics after i.v. or p.o. administration to mice (LC-MS/MS); conditions: for AUC0→∞: Tend = ∞
Protocol: Proteins in 100 μl plasma were precipitated with acetonitrile, and 5 μl samples of the obtained solutions were analyzed. Complete brains were homogenized and centrifuged, and 10 μl samples of the supernatant were analyzed.
Liquid Chromatography-Tandem Mass Spectrometry (LC-MS/MS) was performed using a Sciex API4000 LC-MS/MS. Samples were quantified using extracted calibration samples, treated the same as the study samples, in the range of 1-5000 ng/ml and 5.0-5000 ng/brain for plasma and brain samples, respectively. Compound peak area was used for quantification. Calibration curves were fitted to the model y=A+Bx+Cx^2 (y is the peak area of the analyte, x is the nominal calibration level in ng/ml (plasma) or ng/g (brain), A is the intercept, B is the slope and C is the description of the curvature). 1/x^2 weighing was used. LC-MS/MS system performance was monitored using a reference solution injected at standard intervals. […] The Lower Limit Of Quantification (LLOQ) was established at 1.00 ng/ml and 5.00 ng/brain, for plasma and brain samples, respectively. Values below the LLOQ were given as best estimate. Reversed phase HPLC was performed using gradient elution by a Hypersil BDS C18 100×4.6 mm 3 μm analytical column, at 45° C. and with a flow of 1.00 ml/min: […]

[3H]-serotonin reuptake = molecular target: T1, [3H]-serotonin reuptake (Rattus norvegicus, UniProt P31652); test: In vitro functional inhibition of [3H]-serotonin reuptake, cerebral hemisphere synaptosomes; format: biochemical
T1 construct: the cerebral hemispheres were rapidly removed, and a P2-synaptosomal fraction was prepared; from tissue; host or cells: rat cerebral hemispheres, P2 synaptosomal fraction
T1 sequence (P31652 whole entry): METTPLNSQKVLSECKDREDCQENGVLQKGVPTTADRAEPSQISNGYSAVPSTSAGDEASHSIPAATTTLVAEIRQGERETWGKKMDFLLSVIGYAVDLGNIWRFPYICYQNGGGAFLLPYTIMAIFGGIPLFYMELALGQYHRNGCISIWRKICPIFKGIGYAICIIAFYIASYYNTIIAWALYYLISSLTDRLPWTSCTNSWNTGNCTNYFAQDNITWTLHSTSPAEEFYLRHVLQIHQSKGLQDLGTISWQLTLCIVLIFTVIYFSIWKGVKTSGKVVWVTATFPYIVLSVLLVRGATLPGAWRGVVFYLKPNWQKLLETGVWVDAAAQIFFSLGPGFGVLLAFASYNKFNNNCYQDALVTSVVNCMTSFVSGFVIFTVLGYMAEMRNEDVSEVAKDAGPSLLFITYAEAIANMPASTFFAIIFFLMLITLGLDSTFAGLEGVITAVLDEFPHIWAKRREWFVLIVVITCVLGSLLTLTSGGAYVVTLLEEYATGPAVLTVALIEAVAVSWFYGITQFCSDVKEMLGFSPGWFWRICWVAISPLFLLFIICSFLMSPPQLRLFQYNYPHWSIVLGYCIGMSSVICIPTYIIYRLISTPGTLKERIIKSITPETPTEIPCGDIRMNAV
Protocol: Subsequently, the synaptosomes were exposed to [^3H]-serotonin ([…] final concentration) for 10 min. [^3H]-Serotonine uptake was stopped by filtration with a harvester and the non-incorporated radioactivity was removed by extensive washing. Filter plates with synaptosomes were dehydrated, and the amount of [^3H]-serotonin present was determined by Betaplate liquid scintillation counting.

dopamine reuptake sites = dopamine reuptake sites (Homo sapiens, UniProt Q01959); test: In vitro affinity for dopamine reuptake sites; format: binding
dopamine reuptake sites, sequence (Q01959 whole entry): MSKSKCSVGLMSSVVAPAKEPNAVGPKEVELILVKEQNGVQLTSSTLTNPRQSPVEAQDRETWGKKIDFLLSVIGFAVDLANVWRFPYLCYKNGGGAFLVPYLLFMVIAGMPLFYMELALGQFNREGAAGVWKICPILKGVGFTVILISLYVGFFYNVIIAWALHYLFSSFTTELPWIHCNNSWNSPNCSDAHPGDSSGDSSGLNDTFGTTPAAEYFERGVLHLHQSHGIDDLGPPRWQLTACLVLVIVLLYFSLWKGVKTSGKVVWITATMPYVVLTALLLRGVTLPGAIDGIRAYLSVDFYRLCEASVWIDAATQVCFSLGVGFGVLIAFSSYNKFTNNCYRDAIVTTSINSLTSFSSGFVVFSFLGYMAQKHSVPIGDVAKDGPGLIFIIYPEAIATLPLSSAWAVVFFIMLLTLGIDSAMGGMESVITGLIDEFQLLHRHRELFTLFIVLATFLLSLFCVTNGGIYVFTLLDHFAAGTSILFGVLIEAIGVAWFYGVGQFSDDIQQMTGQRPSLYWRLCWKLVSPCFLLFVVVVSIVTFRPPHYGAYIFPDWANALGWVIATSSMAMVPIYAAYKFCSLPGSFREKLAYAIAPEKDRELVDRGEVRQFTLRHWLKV
Description: In vitro affinity for neurotransmitter reuptake sites were either obtained by CEREP (128, rue Danton, 92500 Rueil-Malmaison, France) or at Solvay Pharmaceuticals B. V. (C. J. van Houtenlaan 36, 1381 CP Weesp, The Netherlands), using well documented procedures. Measured were affinities for serotonin (Tatsumi, 1999), norepinephrine (Pacholczyk, 1991) and dopamine reuptake sites (Pristupa, 1994).

[2] = molecular target: T2, [3H]-norepinephrine reuptake (Rattus norvegicus, UniProt Q63380); test: In vitro functional inhibition of [3H]-norepinephrine reuptake, hypothalamus synaptosomes; format: biochemical
T2 construct: the hypothalamus was rapidly removed and a crude synaptosomal fraction was prepared; from tissue; host or cells: rat hypothalamus, crude synaptosomal fraction
T2 sequence (Q63380 1-617): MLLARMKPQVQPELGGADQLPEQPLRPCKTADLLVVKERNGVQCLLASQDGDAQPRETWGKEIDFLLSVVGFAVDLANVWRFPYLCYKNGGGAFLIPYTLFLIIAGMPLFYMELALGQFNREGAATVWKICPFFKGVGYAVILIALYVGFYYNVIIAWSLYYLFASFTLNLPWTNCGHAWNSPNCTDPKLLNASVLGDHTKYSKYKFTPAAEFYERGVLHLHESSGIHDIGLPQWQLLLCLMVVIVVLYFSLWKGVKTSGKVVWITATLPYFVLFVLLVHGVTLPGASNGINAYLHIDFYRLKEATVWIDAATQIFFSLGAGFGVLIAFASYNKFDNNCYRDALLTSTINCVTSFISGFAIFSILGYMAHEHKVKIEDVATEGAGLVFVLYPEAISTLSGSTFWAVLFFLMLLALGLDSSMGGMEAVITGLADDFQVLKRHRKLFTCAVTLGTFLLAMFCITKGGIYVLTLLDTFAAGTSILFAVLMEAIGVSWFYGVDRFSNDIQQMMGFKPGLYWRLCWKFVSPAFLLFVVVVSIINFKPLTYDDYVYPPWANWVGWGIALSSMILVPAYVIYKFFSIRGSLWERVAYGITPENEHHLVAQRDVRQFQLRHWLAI
Protocol: In vitro functional inhibition of [^3H]-norepinephrine reuptake: male rats (Wistar Hsd/Cpb: WU; 175-200 g) were decapitated, the hypothalamus was rapidly removed and a crude synaptosomal fraction was prepared. Synaptosomes were pre-incubated in absence or presence of the test compound for 10 min at 37° C., in a medium containing the MAO inhibitor pargyline (7 μM). Subsequently, the synaptosomes were exposed to [^3H]-norepinephrine ([…] final concentration) for 15 min. [^3H]-Norepinephrine uptake was stopped by filtration with a harvester and the non-incorporated radioactivity was removed by an extensive washing programme. The filterplates with synaptosomes were dehydrated and the amount of [^3H]-norepinephrine present was determined by Betaplate liquid scintillation counting. […] Test compounds, 10^−2 M dissolved in DMSO, were diluted in Krebs Ringer buffer to test concentrations of 10^−8-10^−5 M. Further experimental details were as described (Coyle, 1969).

[3] = molecular target: norepinephrine reuptake sites (Homo sapiens, UniProt P23975); test: In vitro affinity for norepinephrine reuptake sites; format: binding
norepinephrine reuptake sites, sequence (P23975 whole entry): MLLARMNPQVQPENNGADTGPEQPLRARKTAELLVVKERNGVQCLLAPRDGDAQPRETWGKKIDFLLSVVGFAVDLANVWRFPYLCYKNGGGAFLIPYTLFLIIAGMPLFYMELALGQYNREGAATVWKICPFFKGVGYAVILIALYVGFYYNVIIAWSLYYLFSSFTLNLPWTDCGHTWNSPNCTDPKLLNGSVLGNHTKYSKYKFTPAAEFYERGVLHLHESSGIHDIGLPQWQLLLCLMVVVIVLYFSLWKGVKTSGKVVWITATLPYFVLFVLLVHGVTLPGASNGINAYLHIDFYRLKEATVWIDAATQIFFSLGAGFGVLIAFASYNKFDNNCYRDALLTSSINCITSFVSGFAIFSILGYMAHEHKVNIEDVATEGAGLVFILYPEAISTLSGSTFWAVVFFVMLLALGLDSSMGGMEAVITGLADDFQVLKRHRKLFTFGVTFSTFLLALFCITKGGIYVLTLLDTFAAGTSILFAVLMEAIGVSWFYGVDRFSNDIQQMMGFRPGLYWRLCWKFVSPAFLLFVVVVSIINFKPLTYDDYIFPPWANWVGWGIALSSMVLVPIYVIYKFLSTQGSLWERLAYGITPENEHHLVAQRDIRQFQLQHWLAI

[3H]-dopamine reuptake = molecular target: T3, [3H]-dopamine reuptake (Rattus norvegicus, UniProt P23977); test: In vitro functional inhibition of [3H]-dopamine reuptake, striatum synaptosomes; format: biochemical
T3 construct: the striatum was rapidly removed and a crude synaptosomal fraction (P2) was prepared; from tissue; host or cells: rat striatum, crude P2 synaptosomal fraction
T3 sequence (P23977 whole entry): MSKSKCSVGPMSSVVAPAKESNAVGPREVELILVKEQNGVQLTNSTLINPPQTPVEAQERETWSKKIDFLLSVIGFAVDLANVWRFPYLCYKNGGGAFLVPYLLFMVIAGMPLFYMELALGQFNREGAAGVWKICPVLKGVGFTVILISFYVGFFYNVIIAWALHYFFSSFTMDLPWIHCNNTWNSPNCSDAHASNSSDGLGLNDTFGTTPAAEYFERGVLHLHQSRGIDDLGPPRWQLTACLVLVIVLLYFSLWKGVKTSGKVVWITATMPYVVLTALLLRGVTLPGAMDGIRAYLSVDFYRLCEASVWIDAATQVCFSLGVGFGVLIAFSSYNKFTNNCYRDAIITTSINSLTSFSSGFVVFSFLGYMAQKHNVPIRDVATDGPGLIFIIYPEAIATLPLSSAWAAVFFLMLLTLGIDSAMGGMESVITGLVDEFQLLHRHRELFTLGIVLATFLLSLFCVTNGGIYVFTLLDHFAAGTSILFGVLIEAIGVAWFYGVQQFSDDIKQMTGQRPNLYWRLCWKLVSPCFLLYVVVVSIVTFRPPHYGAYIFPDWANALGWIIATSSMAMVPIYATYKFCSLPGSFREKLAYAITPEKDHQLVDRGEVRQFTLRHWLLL
Protocol: In vitro functional inhibition of [^3H]-dopamine reuptake: male rats (Wistar Hsd/Cpb: WU; 175-200 g) were decapitated; the striatum was rapidly removed and a crude synaptosomal fraction (P2) was prepared by homogenization and centrifugation. Synaptosomes were pre-incubated in absence or presence of the test compound for 15 min at 37° C., in a medium containing the monoamine oxidase inhibitor pargyline (7×10^−6 M) (Coyle, 1969). Subsequently, [^3H]-dopamine (2×10^−7 M final concentration) was added and incubation was continued for 10 min. [^3H]-dopamine uptake was stopped by filtration and the synaptosomes were washed four times with phosphate buffered saline. The amount of [^3H]-dopamine in the synaptosomes was determined by Betaplate liquid scintillation counting. […] Inhibition of DA uptake was performed in duplicate.

[4] = Reduction of venlafaxine N-oxide in the human colon model TIM2; format: in vitro ADME; conditions: within 2 hours after dosing
Protocol: The human colon model TIM2 (TNO Intestinal Model 2): this model is a dynamic model for the human large intestine that simulates in vivo conditions. It is an artificial digestive system that has been validated by many studies (Minekus, 1999).
Suspended in 1% methylcellulose, venlafaxine-N-oxide (1 mg) was inserted into the lumen (120 ml) of the TIM2 model (see above, Minekus, 1999). Samples from the lumen and the dialysate (the latter being a model for the vascular bed of the intestines) were taken at various time intervals, and analyzed for venlafaxine-N-oxide and venlafaxine.

serotonin reuptake sites = serotonin reuptake sites (Homo sapiens, UniProt P31645); test: In vitro affinity for serotonin reuptake sites; format: binding
serotonin reuptake sites, sequence (P31645 whole entry): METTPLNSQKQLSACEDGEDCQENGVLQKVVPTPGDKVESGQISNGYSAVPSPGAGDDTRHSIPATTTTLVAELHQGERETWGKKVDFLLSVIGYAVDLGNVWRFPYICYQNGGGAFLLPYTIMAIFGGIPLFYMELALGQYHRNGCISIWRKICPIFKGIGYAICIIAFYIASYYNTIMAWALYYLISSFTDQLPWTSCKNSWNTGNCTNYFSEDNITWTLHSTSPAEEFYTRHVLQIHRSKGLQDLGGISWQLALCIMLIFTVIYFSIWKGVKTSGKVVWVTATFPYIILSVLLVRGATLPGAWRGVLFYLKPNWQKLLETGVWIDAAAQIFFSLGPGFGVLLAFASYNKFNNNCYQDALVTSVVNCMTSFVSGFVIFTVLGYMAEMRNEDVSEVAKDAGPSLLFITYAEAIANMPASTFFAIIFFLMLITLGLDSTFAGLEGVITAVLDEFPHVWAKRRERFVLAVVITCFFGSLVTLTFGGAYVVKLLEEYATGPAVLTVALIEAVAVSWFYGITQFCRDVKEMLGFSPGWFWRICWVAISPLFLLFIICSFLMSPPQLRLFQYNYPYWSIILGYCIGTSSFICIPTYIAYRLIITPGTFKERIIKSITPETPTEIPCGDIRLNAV

[5] = mice, labelled compound given 1.0 mg/kg i.v., 0.5 h
[6] = mice, labelled compound given 1.0 mg/kg i.v., 1 h
[7] = mice, labelled compound given 1.0 mg/kg i.v., 3 h
[8] = mice, labelled compound given 1.0 mg/kg i.v., 7 h
[9] = mice, labelled compound given 1.0 mg/kg i.v., 24 h
[10] = mice, labelled compound given 10 mg/kg p.o., 0.5 h
[11] = mice, labelled compound given 10 mg/kg p.o., 1 h
[12] = mice, labelled compound given 10 mg/kg p.o., 3 h
[13] = mice, labelled compound given 10 mg/kg p.o., 7 h
[14] = mice, labelled compound given 10 mg/kg p.o., 24 h

COc1ccc(C(C[N+](C)(C)[O-])C2(O)CCCCC2)cc1 (racemic) [Venlafaxine-N-oxide, (R,S)-1-[2-oxido-(dimethylamino)-1-(4-methoxyphenyl)ethyl]-cyclohexanol]
Brain/plasma ratio ([1]; i.v. 1 mg/kg): 0.1
bioavailability ([1]; i.v., 10 mg/kg p.o. against 1 mg/kg i.v.): 23.3%
Conversion in vivo after administration ([1]; mice): reduced to the parent compound
Time after which venlafaxine concentrations in plasma and brain exceed those of the N-oxide ([1]; mice, after i.v. administration of venlafaxine-N-oxide): Approximately one hour
Factor by which venlafaxine concentrations in plasma and brain are higher than those of the N-oxide ([1]; mice, after oral administration of venlafaxine-N-oxide): 10 to 100
Plasma concentration of Venlafaxine [1, 5]: 22 ng/mL
Plasma concentration of Venlafaxine-N-oxide [1, 5]: 173 ng/mL
Plasma concentration of Venlafaxine [1, 6]: 8.0 ng/mL
Plasma concentration of Venlafaxine-N-oxide [1, 6]: 39 ng/mL
Plasma concentration of Venlafaxine [1, 7]: 0.59 ng/mL
Plasma concentration of Venlafaxine-N-oxide [1, 7]: 7.3 ng/mL
Plasma concentration of Venlafaxine [1, 8]: 0 ng/mL
Plasma concentration of Venlafaxine-N-oxide [1, 8]: 0.16 ng/mL
Plasma concentration of Venlafaxine [1, 9]: 0 ng/mL
Plasma concentration of Venlafaxine-N-oxide [1, 9]: 0 ng/mL
Plasma concentration of Venlafaxine [1, 10]: 72 ng/mL
Plasma concentration of Venlafaxine-N-oxide [1, 10]: 840 ng/mL
Plasma concentration of Venlafaxine [1, 11]: 117 ng/mL
Plasma concentration of Venlafaxine-N-oxide [1, 11]: 183 ng/mL
Plasma concentration of Venlafaxine [1, 12]: 77 ng/mL
Plasma concentration of Venlafaxine-N-oxide [1, 12]: 38 ng/mL
Plasma concentration of Venlafaxine [1, 13]: 3.3 ng/mL
Plasma concentration of Venlafaxine-N-oxide [1, 13]: 0.75 ng/mL
Plasma concentration of Venlafaxine [1, 14]: 0.63 ng/mL
Plasma concentration of Venlafaxine-N-oxide [1, 14]: 0.12 ng/mL
Brain penetration ([1]; mouse, in vivo): hardly penetrates the brain
VD ([1]; mouse, in vivo, iv, 1 mg/kg): 3 L/kg
clearance ([1]; mouse, in vivo, iv, 1 mg/kg): 46.1 mL/min/kg
t1/2 ([1]; plasma, i.v. 1 mg/kg): 0.8 h
AUC0→end ([1]; plasma, i.v. 1 mg/kg, Tend = 7 hrs): 361.6 ng·h/mL
AUC0→∞ ([1]; plasma, i.v. 1 mg/kg): 361.7 ng·h/mL
Cmax (C0) ([1]; plasma, i.v. 1 mg/kg, extrapolated to T0 (time zero)): 1205.2 (C0)* ng/ml
Cmax ([1]; plasma, p.o. 10 mg/kg): 1040.0 ng/mL
t1/2 ([1]; plasma, p.o. 10 mg/kg): 3.1 h
AUC0→end ([1]; plasma, p.o. 10 mg/kg, Tend = 24 hrs): 841.6 ng·h/mL
AUC0→∞ ([1]; plasma, p.o. 10 mg/kg): 842.2 ng·h/mL
Serotonine inhibition pIC50 ([3H]-serotonin reuptake): 4.9
Dopamine binding pKi (dopamine reuptake sites): <4.5
Noradrenaline inhibition pIC50 [2]: 4.9
Noradrenaline binding pKi [3]: <4.5
Dopamine inhibition pIC50 ([3H]-dopamine reuptake): 4.5
Reduction to venlafaxine in TIM2 [4]: nearly quantitatively reduced to venlafaxine
Serotonine binding pKi (serotonin reuptake sites): 5.5
